Results on six compounds are retold here after paper PMC5253651 (Nature Communications, 2017).

Where two headings read alike, the source gives them in different places. Marks after values point to notes of the source that are not given here.

Experiment [1] has as its target T1, human FPPS (Homo sapiens, UniProt P14324).
T1 sequence (P14324 1-353 isoform P14324-2): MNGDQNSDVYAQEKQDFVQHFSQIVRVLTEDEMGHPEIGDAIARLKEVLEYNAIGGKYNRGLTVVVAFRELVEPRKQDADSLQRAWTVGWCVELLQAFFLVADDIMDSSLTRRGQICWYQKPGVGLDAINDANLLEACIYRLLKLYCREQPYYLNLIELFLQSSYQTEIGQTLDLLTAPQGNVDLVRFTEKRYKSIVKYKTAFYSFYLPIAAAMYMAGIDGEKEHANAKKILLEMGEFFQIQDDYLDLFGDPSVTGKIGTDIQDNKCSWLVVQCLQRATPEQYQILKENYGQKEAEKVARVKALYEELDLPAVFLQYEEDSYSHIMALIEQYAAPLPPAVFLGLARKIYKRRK
Experimental: Reaction calorimetry was also carried out at 30 °C with a MicroCal iTC200 system. The enzyme and substrates were prepared in the reaction buffer (50 mM HEPES (pH 7.5), 150 mM NaCl, 2 mM MgCl2, 2 mM β-mercaptoethanol and 5% glycerol) in the same way described for the binding experiments. […] When added, FPP was preincubated together with the enzyme. The concentration of the enzyme in the cell was 400–500 nM, and those of the substrates in the syringe were 0.4–4 mM. Heats of dilution were measured and subtracted from the actual reaction data. […] Briefly, The molar reaction enthalpy (ΔH) was determined first based on the relationship:
in which Q is the total heat associated with producing n moles of product, [S0] is the starting concentration of the limiting substrate and V is the volume of the calorimetric cell. Q was calculated by integrating the thermal power (dQ/dt) measured over the complete course of reaction, whereas [S0] and V were known. Once ΔH was determined, the substrate concentration ([S]) could be determined as a function of time as described in the equation:
The rate of reaction could be calculated from dQ/dt for any given time point:
For kinetic measurements, the temporal experimental heat flow must be monitored accurately. […] Km and Vmax values were determined by fitting the rate data to the following equation[29]:

Experiment [2] concerns the target T1, human FPPS. As to the kind of experiment: Isothermal titration calorimetry (ITC) binding assay. Further details: His6 (N); made in house; host or cells: Escherichia coli BL21 (DE3). On the procedure: Ligand (DMAPP, GPP and FPP) and MgCl2 solutions were prepared in the used dialysate. Each titration experiment consisted of a first 1 μl injection followed by 18 2 μl injections of a ligand solution into the 204.1 μl calorimetric cell loaded with the enzyme solution. […] When added, the concentration of MgCl2 was 5 mM. Heats of dilution were measured by injecting the ligands into the buffer alone and subtracted from the corresponding titration data. The data were fitted to the single-site-binding model implemented in the Origin software package provided with the ITC instrument.

For another experiment, the system named is FPPS. The settings on record: cited from earlier work.
In a further experiment the target is N-BP-bound FPPS complex. The settings on record: binding of IPP to an N-BP-bound FPPS complex; cited from earlier work.
Setting [3] is: ITC, 30 °C, titrated in absence of Mg2+, triplicate.
The mark [4] stands for this setting: ITC, 30 °C, titrated in presence of Mg2+ (5 mM MgCl2), triplicate.
[5] abbreviates: ITC, 30 °C, titrated in absence of Mg2+, triplicate, read-out: Kd.
The mark [6] stands for this setting: ITC, 30 °C, titrated in presence of Mg2+ (5 mM MgCl2), triplicate, read-out: Kd.

As for `CC(C)=CCC/C(C)=C/CC/C(C)=C/COP(=O)(O)OP(=O)(O)O` [FPP, farnesyl pyrophosphate], on human FPPS [1] (same excess experiment, reaction with an initial amount of FPP preincubated with enzyme), the “effect on FPPS reaction rate curve (product inhibition)” value is given as “depressed rate curve”. On human FPPS [2] (setting [3]), the TΔS was determined as 1.8 kcal/mol, the “n (molar binding ratio)” value worked out at 1.12±0.01 and the ΔH is -5.5 ± 0.1 kcal/mol. Also, on human FPPS [2] (setting [4]), the TΔS amounted to 1.7 kcal/mol, the “n (molar binding ratio)” value is given as 1.17±0.02 and the ΔH is -5.6 ± 0.1 kcal/mol.
For the compound `CC(C)=CCC/C(C)=C/COP(=O)(O)OP(=O)(O)O` [GPP, geranyl pyrophosphate], the Km in the experiment on FPPS (previously reported Km value for GPP) was 2.07 µM. The TΔS on human FPPS [2] (setting [3]) is 1.8 kcal/mol; on human FPPS [2] (setting [4]), 0.2 kcal/mol. Further, the “n (molar binding ratio)” value at human FPPS [2] (setting [3]) amounted to 0.80±0.03; at human FPPS [2] (setting [4]) it was 0.79±0.01. In addition, the figures for the ΔH at human FPPS [2] (setting [3]) and at human FPPS [2] (setting [4]) were -5.3 ± 0.2 kcal/mol and -7.7 ± 0.2 kcal/mol, respectively. The Kd worked out at 7.6 ± 0.9 µM on human FPPS [2] (setting [5]) and 2.1 ± 0.3 µM at human FPPS [2] (setting [6]).
For the compound `C=C(C)CCO[P@@](=O)(O)OP(=O)(O)O` [IPP, isopentenyl pyrophosphate], the “effect on enzyme activity (substrate inhibition)” value at human FPPS [1] (experiment carried out in excess of IPP) is “significantly reduced enzyme activity”. Also, the Michaelis constant (Km) with FPPS (literature value for IPP) was 1.8 µM. In addition, the dissociation constant (Kd) at N-BP-bound FPPS complex is 0.9 µM.
Regarding `O=P(O)(O)OP(=O)(O)O` [PPi], the “binding affinity by ITC (result in words)” value on human FPPS [2] (both in the presence and absence of Mg2+) is “did not demonstrate an apparent binding event”.
On to `CC(C)=CCOP(=O)(O)OP(=O)(O)O` [DMAPP, dimethylallyl pyrophosphate], for which, on human FPPS [2] (setting [3]), the TΔS was determined as 1.6 kcal/mol, the “n (molar binding ratio)” value is given as 1 ^† and the ΔH was -4.5 ± 0.2 kcal/mol. Also, at human FPPS [2] (setting [4]), the TΔS is 2.1 kcal/mol, the “n (molar binding ratio)” value amounted to 0.87±0.01 and the ΔH was -5.8 ± 0.1 kcal/mol. Also, at human FPPS [2] (Kd, ITC, 30 °C, titrated in absence of Mg2+, triplicate), the dissociation constant Kd came to 43.7 ± 4.3 µM. Also, the dissociation constant (Kd) on human FPPS [2] (Kd, ITC, 30 °C, titrated in presence of Mg2+ (5 mM MgCl2), triplicate) stood at 2.2 ± 0.2 µM.
Consider `CC(C)=CCC/C(C)=C/CC/C(C)=C/CO[P@@](=O)(O)OP(=O)(O)O` (stereo in doubt) [FPP, farnesyl pyrophosphate], for which the dissociation constant (Kd) at human FPPS [2] (setting [5]) is 5.3 ± 0.4 µM; at human FPPS [2] (setting [6]), 6 ± 0.6 µM; at human FPPS [2] (summary of ITC values in absence and presence of Mg2+, read-out: Kd for binding to the allosteric pocket) it was 5 to 6 µM.
